# Experiment: Toxicity in iv dosed white Swiss-Webster mouse
# Assay type: organism-based
# Settings: in vivo
structure (smiles),measurement,value
CCN1C[C@]2(COC(=O)c3ccccc3N3C(=O)C[C@H](C)C3=O)CC[C@H](O)[C@@]34[C@@H]5C[C@H]6[C@H](OC)[C@@H]5[C@](O)(C[C@@H]6OC)[C@](O)([C@@H](OC)[C@H]23)[C@@H]14 [GRANDIFLORINE],LD50,8.3 mg/kg

# Source: ChEMBL document CHEMBL1150941, “The characterization and structure-activity evaluation of toxic norditerpenoid alkaloids from two Delphinium species” (J Nat Prod, 1998)
